Structures can show the parent of a compound that is named as a salt. Where two headings read alike, the source gives them in different places.
Assays:
[1] = test system: mixed lymphocyte reaction (PBMC with irradiated allogeneic PBMC or RPMI1788 stimulator cells); assay: Mixed lymphocyte reaction (MLR) assay; assay type: cell-based, human; details: read-out: MLR (IC50, lowest concentration giving 50% suppression of the MLR)
Description: Pyrido[2,3-d]pyrimidine derivatives were first dissolved (10 mM) in dimethyl-sulfoxide (hereinafter referred as DMSO) and further diluted in culture medium before use for the following in vitro experiments. The commercially available culture medium consisted of RPMI-1640+10% foetal calf serum (FCS). Some pyrido[2,3-d]pyrimidine derivatives described herein were tested in the following mixed lymphocyte reaction (MLR) assay.
Peripheral blood mononuclear cells (hereinafter referred as PBMC) were isolated from heparinized peripheral blood by density gradient centrifugation over Lymphoprep (Nycomed, Maorstua, Norway). Allogeneic PBMC or Eppstein-Barr Virus-transformed human B cells [commercially available under the trade name RPMI1788 (ATCC name CCL156)] which strongly express B7-1 and B7-2 antigens were used as stimulator cells after irradiation with 30 Gy. MLR was performed in triplicate wells. After 5 days incubation at 37° C., 1 μCi [^3H]-thymidine was added to each cup. After a further 16 hours incubation, cells were harvested and counted in a β-counter. Inhibition of proliferation by a compound described in some of the present examples was counted while using the formula: […]
wherein cpm is the thymidine count per minute. The MLR assay is regarded by those skilled in the art as an in vitro analogue of the transplant rejection since it is based on the recognition of allogeneic major histocompatibility antigens on the stimulator leukocytes, by responding lymphocytes.

[2] = test system: human TNF-α production by PBMC; assay: TNF-α assay (LPS-stimulated PBMC, sandwich ELISA); assay type: cell-based; details: PBMC stimulated with LPS 1 μg/ml, 72 hours, read-out: TNF α (IC50 in the TNFα assay)
Description: (§1) Peripheral blood mononuclear cells (herein referred as PBMC), in response to stimulation by lipopolysaccharide (hereinafter LPS), a gram-negative bacterial endotoxin, produce various […], in particular human TNF-α. Inhibition of the activation of PBMC can therefore be measured by the level of suppression of the production of TNF-α by PBMC in response to stimulation by LPS.
Such inhibition measurement was performed as follows: PBMC were isolated from heparinized peripheral blood by density gradient centrifugation over Lymphoprep (commercially available from Nycomed, Norway). LPS was then added to the PMBC suspension in complete medium (10^6 cells/ml) at a final concentration of 1 μg/ml. The pyrido[3,2-d]pyrimidine derivative to be tested was added at different concentrations (0.1 μM, 1 μM and 10 μM) and the cells were incubated at 37° C. for 72 hours in 5% CO2. The supernatants were collected, then TNF-α concentrations were measured with respectively an anti-TNF-α antibody in a sandwich ELISA (Duo Set ELISA human TNFα, commercially available from R&D Systems, United Kingdom). The colorimetric reading of the ELISA was measured by a Multiskan RC plate reader (commercially available from ThermoLabsystems, Finland) at 450 nm (reference wavelength: 690 nm). Data analysis was performed with Ascent software 2.6. (also from ThermoLabsystems, Finland): a standard curve (recombinant human TNFα) was drawn and the amount (pg/ml) of each sample on the standard curve was determined.
The % suppression of human TNFα production by the pyrido[2,3-d]pyrimidine derivatives of the invention was calculated using the formula: […]

[3] = test system: human IL-1 β production by PBMC; assay: IL-1 β assay (LPS-stimulated PBMC, sandwich ELISA); assay type: cell-based; details: PBMC stimulated with LPS 1 μg/ml, 72 hours, read-out: IC50 in the IL-1 β test (50% suppression of human IL-1 β)
Description: as §1, with “(LPS),” for “(hereinafter LPS),”, “IL-1 β.” for “TNF-α.”, “IL-1 β” for “TNF-α”
Such inhibition measurement was performed as follows: PBMC were isolated from heparinized peripheral blood by density gradient centrifugation over Lymphoprep (commercially available from Nycomed, Norway). LPS was then added to the PMBC suspension in complete medium (10^6 cells/ml) at a final concentration of 1 μg/ml. […] The supernatants were collected, then IL-1 β concentrations were measured with an anti-IL-1 β antibody in a sandwich ELISA. The calorimetric reading of the ELISA was measured by a Multiskan RC plate reader (commercially available from ThermoLabsystems, Finland) at 450 nm (reference wavelength: 690 nm). […] (also from ThermoLabsystems, Finland): a standard curve (recombinant human IL-1 β) was drawn and the amount (pg/ml) of each sample on the standard curve was determined.
The % suppression of human IL-1 β by the pyrido[2,3-d]pyrimidine derivatives of this invention was calculated using the formula: […]

[4] = Homo sapiens, RPMI-1788, 5 days incubation then 16 h [3H]-thymidine
[5] = 5 days incubation then 16 h [3H]-thymidine

Molecule	IC50 [1, 4] [µM]	IC50 ([2]; Homo sapiens) [µM]	IC50 [1, 5] [µM]	IC50 [2] [µM]	also measured
CCCNc1nc(N)nc2ncc(-c3ccc(OC)c(OC)c3)cc12 [Example 30, 2-amino-4-n-propylamino-6-(3,4-dimethoxyphenyl)pyrido[2,3-d]pyrimidine]	5.2	4	–	–	–
COc1ccc(-c2cnc3nc(N)nc(N4CCN(Cc5ccccc5)CC4)c3c2)cc1OC [Example 23, 2-amino-4-(4-benzylpiperazin-1-yl)-6-(3,4-dimethoxyphenyl)-pyrido[2,3-d]pyrimidine]	7.2	0.7	–	–	–
COc1ccc(-c2cnc3nc(N)nc(N4CCN(C(=O)OCc5ccccc5)CC4)c3c2)cc1OC [Example 15, 2-amino-6-(3,4-dimethoxyphenyl)-4-[(N-benzyloxycarbonyl)-piperazin-1-yl]-pyrido[2,3-d]pyrimidine]	–	–	0.8	0.9	IC50 [3]: 7 µM
COc1ccc(-c2cnc3nc(N)nc(NCc4ccccc4)c3c2)cc1OC [Example 43, 2-amino-4-(benzylamino)-6-(3,4-dimethoxyphenyl)pyrido[2,3-d]pyrimidine]	5	–	–	–	–
2-amino-6-(3,4-dimethoxyphenyl)-4-(4-N-methyl piperidinoxy)pyrido[2,3-d]pyrimidine [Example 34]	–	–	–	6.7	–
COc1ccc(-c2cnc3nc(N)nc(NC(C)C)c3c2)cc1OC [Example 31, 2-amino-4-isopropylamino-6-(3,4-dimethoxyphenyl)pyrido[2,3-d]pyrimidine]	5.7	0.7	–	–	–
COc1ccc(-c2cnc3nc(N)nc(OC4CCOCC4)c3c2)cc1OC [Example 33, 2-amino-4-(tetrahydro-2H-pyran-4-yloxy)-6-(3,4-dimethoxyphenyl)pyrido[2,3-d]pyrimidine]	2.4	0.6	–	–	–
Cc1ccc(-c2cnc3nc(N)nc(OC(C)C)c3c2)cc1C [Example 38, 2-amino-4-isopropoxy-6-(3,4-dimethylphenyl)-pyrido[2,3-d]pyrimidine]	–	0.9	–	–	–
COc1ccc(-c2cnc3nc(N)nc(N4CCCCC4)c3c2)cc1OC [Example 32, 2-amino-4-(1-piperidino)-6-(3,4-dimethoxyphenyl)pyrido[2,3-d]pyrimidine]	–	–	1.9	0.9	–
COc1ccc(-c2cnc3nc(N)nc(N4CCN(C(=O)Nc5ccc(C)cc5)CC4)c3c2)cc1OC [Example 12, 2-amino-4-(N-4-methylphenylcarbamoyl-piperazin-1-yl]-6-(3,4-dimethoxyphenyl)pyrido[2,3-d]pyrimidine]	–	–	0.4	4.9	–
COc1ccc(-c2cnc3nc(N)nc(Nc4cccc(Br)c4)c3c2)cc1OC [Example 42, 2-amino-4-(3-bromo-anilino)-6-(3,4-dimethoxyphenyl)pyrido[2,3-d]pyrimidine]	3.3	3.3	–	–	IC50 ([3]; Homo sapiens): 7 µM
COc1ccc(-c2cnc3nc(N)nc(N4CCN(C(=O)COc5ccccc5)CC4)c3c2)cc1OC [Example 10, 2-amino-4-(N-phenoxyacetyl-N-piperazin-1-yl)-6-(3,4-dimethoxyphenyl)pyrido[2,3d]pyrimidine]	–	–	0.3	1.7	–
COc1ccc(-c2cnc3nc(N)nc(NCCc4ccccc4)c3c2)cc1OC [Example 44, 2-amino-4-(phenylethylamino)-6-(3,4-dimethoxyphenyl)pyrido[2,3-d]pyrimidine]	4.3	4.2	–	–	–
CCC(C)Oc1nc(N)nc2ncc(-c3ccc(OC)c(OC)c3)cc12 (centres unmarked) [Example 37, hydrochloride salt of 2-amino-4-(sec-butoxy)-6-(3,4-dimethoxyphenyl)-pyrido[2,3-d]pyrimidine]	–	–	3.2	0.5	–
CC(C)Oc1nc(N)nc2ncc(-c3cccs3)cc12 [Example 21, 2-amino-4-isopropoxy-6-(2-thienyl)pyrido[2,3-d]pyrimidine]	–	0.8	–	–	–
COc1ccc(-c2cnc3nc(N)nc(OC(C)C)c3c2)cc1OC [Example 2, 2-amino-4-isopropoxy-6-(3,4-dimethoxyphenyl)-pyrido[2,3-d]pyrimidine]	0.9	0.09	–	–	–
COc1ccc(-c2cnc3nc(N)nc(N4CCOCC4)c3c2)cc1OC [Example 4, 2-amino-4-morpholino-6-(3,4-dimethoxyphenyl)-pyrido[2,3-d]pyrimidine]	4.8	3.2	–	–	–
CCC(C)Oc1nc(N)nc2ncc(-c3ccc(OC)c(OC)c3)cc12 (centres unmarked) [Example 36, 2-amino-4-(sec-butoxy)-6-(3,4-dimethoxyphenyl)-pyrido[2,3d]pyrimidine]	–	–	2.6	0.6	–
COc1ccc(-c2cnc3nc(N)nc(N4CCNCC4)c3c2)cc1OC [Example 22, 2-amino-4-(piperazin-1-yl)-6-(3,4-dimethoxyphenyl)-pyrido[2,3-d]pyrimidine]	–	8.1	–	–	–
COc1ccc(-c2cnc3nc(N)nc(OC)c3c2)cc1OC [Example 35, 2-amino-4-methoxy-6-(3,4-dimethoxyphenyl)pyrido[2,3d]pyrimidine]	–	–	6.2	0.9	–
Cc1ccc(NC(=O)N2CCN(c3nc(N)nc4ncc(Br)cc34)CC2)cc1 [Example 7, 2-amino-4-[N-4-methylphenylcarbamoyl-piperazin-1-yl]-6-bromo-pyrido[2,3-d]pyrimidine]	–	–	0.7	–	–

From US20080312227A1, “Substituted Pyrido(2,3-D) Pyrimidine Derivatives Useful as Medicines for the Treatment of Autoimmune Disorders” (4 AZA BIOSCIENCE NV, priority 2005, published 2008)
